Measured values: paper PMC9151520 (Archives of Toxicology, 2022)
“And” between values parts separate entries of the source, which are not always exact repeats. Equal entries are not always repeated. Where two headings read alike, the source gives them in different places.

Legend:
[1] = test system: p53 signaling (p53RE-bla HCT-116 cells); test: cells; assay type: cell-based; conditions: for EC50 / Emax: Homo sapiens
[2] = test system: p53 signaling (p53RE-bla HCT-116 cells)
[3] = test system: p53 signaling (p53RE-bla HCT-116 cells); remark: listed apart in the source
p53RE-bla HCT-116 cells [4] = test system: p53RE-bla HCT-116 cells
p53RE-bla HCT-116 cells [5] = test: cells; conditions: Homo sapiens
[6] = HCT-116, read-out: EC50, p53 activation, cherry pick confirmation
[7] = HCT-116, read-out: EC50, p53 activation, primary screening
[8] = HCT-116, read-out: Efficacy, p53 activation, cherry pick confirmation
[9] = HCT-116, read-out: Efficacy, p53 activation, primary screening
[10] = read-out: EC50, viability, primary screening
[11] = HCT-116, read-out: EC50, viability, primary screening
[12] = HCT-116, read-out: p53 activation EC50, cherry pick confirmation
[13] = HCT-116, read-out: p53 activation EC50, primary screening
[14] = HCT-116, read-out: p53 activation efficacy, cherry pick confirmation
[15] = HCT-116, read-out: p53 activation efficacy, primary screening

Compound	EC50 [1, 6]	EC50 [1, 7]	Emax [1, 8]	Emax [1, 9]	EC50, p53 activation, cherry pick confirmation [2]	EC50, p53 activation, primary screening [2]	Efficacy, p53 activation, cherry pick confirmation [2]	Efficacy, p53 activation, primary screening [2]	EC50, p53 activation, cherry pick confirmation [3]	EC50, p53 activation, primary screening [3]	Efficacy, p53 activation, cherry pick confirmation [3]	Efficacy, p53 activation, primary screening [3]	EC50 (p53RE-bla HCT-116 cells [4]; [10])	EC50 (p53RE-bla HCT-116 cells [5]; [11])	EC50 [1, 12]	EC50 [1, 13]	Emax [1, 14]	Emax [1, 15]	p53 activation EC50, cherry pick confirmation [2]	p53 activation EC50, primary screening [2]	other results
Oc1ccc(C(c2ccc(O)cc2)(C(F)(F)F)C(F)(F)F)cc1 [Bisphenol AF]	31.7 µM	28.9 µM	55.4%	33.6%	inactive	inactive	inactive	inactive	inactive	inactive	inactive	inactive	47.6 µM	47.4 µM							EC50, viability, cherry pick confirmation (p53RE-bla HCT-116 cells [4]): inactive; EC50, viability, primary screening (p53RE-bla HCT-116 cells [4]): inactive; Efficacy, viability, cherry pick confirmation (p53RE-bla HCT-116 cells [4]): inactive
CC1=CC(=O)c2ccccc2C1=O [Menadione]	16.2 µM	40.3 µM	33.9%	31.2%	inactive	inactive	inactive	inactive	inactive	inactive	inactive	inactive	42.4 µM and 46.3 µM	51.3 µM							EC50 (p53RE-bla HCT-116 cells [4]; read-out: EC50, viability, cherry pick confirmation): 42.4 µM; EC50 (p53RE-bla HCT-116 cells [5]; HCT-116, read-out: EC50, viability, cherry pick confirmation): 36.3 µM
Oc1ccc(Cl)cc1Sc1cc(Cl)ccc1O [Fenticlor]															18.1 µM	34.2 µM	54.9%	52.2%	inactive	inactive	p53 activation efficacy, cherry pick confirmation [2]: inactive; p53 activation efficacy, primary screening [2]: inactive; p53 activation EC50, cherry pick confirmation [3]: inactive; p53 activation EC50, primary screening [3]: inactive; p53 activation efficacy, cherry pick confirmation [3]: inactive; p53 activation efficacy, primary screening [3]: inactive; Viability EC50, primary screening (p53RE-bla HCT-116 cells [4]): inactive; EC50 (p53RE-bla HCT-116 cells [4]; read-out: Viability EC50, primary screening): 18.7 µM; EC50 (p53RE-bla HCT-116 cells [5]; HCT-116, read-out: Viability EC50, primary screening): 27.7 µM
O=Nc1ccc(Nc2ccccc2)cc1 [4-Nitrosodiphenylamine]															27.6 µM	47.6 µM	84.9%	61.2%	inactive	inactive	p53 activation efficacy, cherry pick confirmation [2]: inactive; p53 activation efficacy, primary screening [2]: inactive; p53 activation EC50, cherry pick confirmation [3]: inactive; p53 activation EC50, primary screening [3]: inactive; p53 activation efficacy, cherry pick confirmation [3]: inactive; p53 activation efficacy, primary screening [3]: inactive; Viability EC50, cherry pick confirmation (p53RE-bla HCT-116 cells [4]): inactive; Viability EC50, primary screening (p53RE-bla HCT-116 cells [4]): inactive; Viability efficacy, primary screening (p53RE-bla HCT-116 cells [4]): inactive; EC50 (p53RE-bla HCT-116 cells [4]; read-out: Viability EC50, cherry pick confirmation): 36.3 µM; EC50 (p53RE-bla HCT-116 cells [5]; HCT-116, read-out: Viability EC50, cherry pick confirmation): 40.8 µM
CC(C)(c1cc(Br)c(O)c(Br)c1)c1cc(Br)c(O)c(Br)c1 [3,3',5,5'-Tetrabromobisphenol A]		30.1 µM		91.5%	inactive	inactive	inactive	inactive	inactive	inactive	inactive	inactive	34.9 µM and 45.8 µM	34.3 µM							EC50, p53 activation, cherry pick confirmation [1]: inactive; Efficacy, p53 activation, cherry pick confirmation [1]: inactive
